Assay results published in BindingDB's records for doi:10.7270/Q2PG1Q6D (Burnham Center For Chemical Genomics, 2011).
pIC50: −log10 of the molar value.

Biological target: T1, Protein Mdm4 (Homo sapiens, UniProt O15151)
T1 sequence (O15151 whole entry): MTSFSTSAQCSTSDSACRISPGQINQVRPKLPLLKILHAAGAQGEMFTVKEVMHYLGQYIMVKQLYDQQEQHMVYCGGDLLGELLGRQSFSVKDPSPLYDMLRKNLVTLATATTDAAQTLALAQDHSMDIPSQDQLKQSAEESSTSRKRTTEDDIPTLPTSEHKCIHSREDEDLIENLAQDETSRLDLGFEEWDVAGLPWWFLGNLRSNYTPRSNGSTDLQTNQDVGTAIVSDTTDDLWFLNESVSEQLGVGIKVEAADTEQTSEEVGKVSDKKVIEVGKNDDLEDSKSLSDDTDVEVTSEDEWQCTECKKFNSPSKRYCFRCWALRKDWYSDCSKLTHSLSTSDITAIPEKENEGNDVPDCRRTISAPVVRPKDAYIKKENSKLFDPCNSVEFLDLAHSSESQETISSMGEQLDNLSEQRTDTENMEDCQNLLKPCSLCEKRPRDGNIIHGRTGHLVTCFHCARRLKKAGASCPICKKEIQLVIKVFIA
Assay: Mdm2-MdmX interaction inhibitors, dose response, luminescence detection (AID 504593)

## Cc1cc(N=NC(C)c2ccccc2O)nc(-c2ccccc2O)n1 (stereo unspecified)
  pIC50: 5.17
